This note sets out measurements from patent US11147881B2, “Controlled drug release liposome compositions and methods thereof” (TAIWAN LIPOSOME COMPANY, LTD., priority 2013, dated 2021).

The nature of series [1]: Precipitation study of vinorelbine with mono- and polyvalent counterion donors. In kind it is physicochemical. The method, then: As shown in Example 7, the percentage of encapsulated vinorelbine remaining after plasma incubation is adjustable according to the present invention. The percentage of encapsulated therapeutic agent remaining after plasma incubation can be monitored by precipitation among encapsulated therapeutic agent(s) and counterion donor(s) in the aqueous environment as in FIG. 1, FIG. 5, and FIG. 6. The counterion donors could be selected from monovalent counterion donor(s), polyvalent counterion donor(s), or a combination thereof.
(§1) To examine the precipitation, therapeutic agent solution(s) and counterion donor(s), or therapeutic agent solution(s) and combination of counterion donors were mixed, followed by vigorous agitation and high speed centrifugation to separate insoluble precipitate and free form therapeutic agent(s). The concentration of the free form therapeutic agent(s) was determined by measuring the corresponding absorbance with a plate reader.
Various compositions were prepared by mixing 60 mg/mL of vinorelbine solution and liposomes with 1 mM to 22.5 mM of dextran sulfate (molecular weight 1,600), or with 300 mM of ammonium sulfate and 1 mM to 22.5 mM of dextran sulfate (molecular weight 1,600), followed by vigorous agitation by vortex and centrifugation at 21,460×g for 30 minutes to separate insoluble precipitate from free-form vinorelbine. The volume ratio for mixing the vinorelbine solution and the counterion donor solution was 1:2, with the final equivalent counterion donor concentrations shown in Table 12.

A short description of series [2]: Precipitation study of irinotecan with mono- and polyvalent counterion donors. In kind it is physicochemical. The method, then:
as §1
Various compositions were prepared by mixing 60 mg/mL of irinotecan solution and liposomes with 1 mM to 22.5 mM of dextran sulfate (molecular weight 1,600), or with 300 mM of ammonium sulfate and 1 mM to 22.5 mM of dextran sulfate (molecular weight 1,600), followed by vigorous agitation by vortex and centrifugation at 21,460×g for 30 minutes to separate insoluble precipitate from free-form irinotecan. The volume ratio for mixing the irinotecan solution and the counterion donor solution was 1:2, with the final equivalent counterion donor concentrations shown in Table 13.

[3] abbreviates: AS = 0 mM, DS = 0.67 mM (5.27 mEq/L).
Where [4] appears, read: AS = 0 mM, DS = 2.5 mM (19.68 mEq/L).
The mark [5] stands for this setting: AS = 0 mM, DS = 5 mM (39.35 mEq/L).
Where [6] appears, read: AS = 0 mM, DS = 15 mM (118.05 mEq/L).
[7] abbreviates: AS = 200 mM, DS = 0 mM (0 mEq/L).
Where [8] appears, read: AS = 200 mM, DS = 0.67 mM (5.27 mEq/L).
Setting [9] is: AS = 200 mM, DS = 2.5 mM (19.68 mEq/L).
[10] abbreviates: AS = 200 mM, DS = 5 mM (39.35 mEq/L).
[11] abbreviates: AS = 200 mM, DS = 15 mM (118.05 mEq/L).

Consider `CCC1=C[C@@H]2CN(C1)Cc1c([nH]c3ccccc13)[C@@](C(=O)OC)(c1cc3c(cc1OC)N(C)[C@H]1[C@@](O)(C(=O)OC)[C@H](OC(C)=O)[C@]4(CC)C=CCN5CC[C@]31[C@@H]54)C2` [vinorelbine], for which the “Percentage of free-form VNB remaining” value was determined as 100.7% in series [1] (AS = 0 mM, DS = 0 mM); 87.1% in series [1] (setting [3]); 54.0% in series [1] (setting [4]); 11.0% in series [1] (setting [5]); 5.4% in series [1] (setting [6]); 97.6% in series [1] (setting [7]). For the same compound, the “Percentage of free-form VNB remaining” value in series [1] (setting [8]) amounted to 83.3%; in series [1] (setting [9]) it was 59.0%; in series [1] (setting [10]), 21.2%; in series [1] (setting [11]), 5.7%. In addition, the “visible precipitation with sodium dextran sulfate” value in series [1] (FIG. 5 left) is listed as “precipitation”. In addition, in series [1] (FIG. 5 right), the “visible precipitation with ammonium sulfate” value is given as “no visible precipitation”. In series [1] (maximum, at DS of 39.35 mEq/L), the “enhancement of free-form vinorelbine by ammonium sulfate (as compared to DS alone)” value is reported as “up to 10.2%”.
With `CCc1c2c(nc3ccc(OC(=O)N4CCC(N5CCCCC5)CC4)cc13)-c1cc3c(c(=O)n1C2)COC(=O)[C@]3(O)CC` [irinotecan], the “Percentage of free-form CPT11 remaining” value in series [2] (AS = 0 mM, DS = 0 mM) stood at 103.4%; in series [2] (setting [3]) it was 82.0%; in series [2] (AS = 0 mM, DS = 1.6 mM (12.59 mEq/L)), 50.9%; in series [2] (setting [4]), 27.3%; in series [2] (setting [5]), 2.3%; in series [2] (setting [6]) it was 3.8%. Further, the “Percentage of free-form CPT11 remaining” value in series [2] (setting [7]) turned out to be 101.1%; in series [2] (setting [8]), 83.8%; in series [2] (AS = 200 mM, DS = 1.6 mM (12.59 mEq/L)), 59.4%; in series [2] (setting [9]), 38.3%; in series [2] (setting [10]), 9.7%; in series [2] (setting [11]), 9.0%. In series [2] (FIG. 6 left), the “visible precipitation with sodium dextran sulfate” value is on record as “precipitation”. For the same compound, the “visible precipitation with ammonium sulfate” value in series [2] (FIG. 6 right) is “no visible precipitation”. Moreover, the “enhancement of free-form irinotecan by ammonium sulfate (as compared to DS alone)” value in series [2] (maximum, at DS of 19.68 mEq/L) is “up to 11%”.
